Columns and labels:
[1] = target: PIK3CD (Human) (UniProt O00329); test: Assessment of PIK3CD Kinase Activity
[2] = target: PIK3CG (human) (UniProt P48736); test: Assessment of PIK3CG Kinase Activity
[3] = target: PIK3CA (human) (UniProt P42336); test: Assessment of PIK3CA Kinase Activity
[4] = target: PIK3CB (Human) (UniProt P42338); test: Assessment of PIK3CB Kinase Activity
PIK3CB (Human), sequence (P42338 whole entry, looked up): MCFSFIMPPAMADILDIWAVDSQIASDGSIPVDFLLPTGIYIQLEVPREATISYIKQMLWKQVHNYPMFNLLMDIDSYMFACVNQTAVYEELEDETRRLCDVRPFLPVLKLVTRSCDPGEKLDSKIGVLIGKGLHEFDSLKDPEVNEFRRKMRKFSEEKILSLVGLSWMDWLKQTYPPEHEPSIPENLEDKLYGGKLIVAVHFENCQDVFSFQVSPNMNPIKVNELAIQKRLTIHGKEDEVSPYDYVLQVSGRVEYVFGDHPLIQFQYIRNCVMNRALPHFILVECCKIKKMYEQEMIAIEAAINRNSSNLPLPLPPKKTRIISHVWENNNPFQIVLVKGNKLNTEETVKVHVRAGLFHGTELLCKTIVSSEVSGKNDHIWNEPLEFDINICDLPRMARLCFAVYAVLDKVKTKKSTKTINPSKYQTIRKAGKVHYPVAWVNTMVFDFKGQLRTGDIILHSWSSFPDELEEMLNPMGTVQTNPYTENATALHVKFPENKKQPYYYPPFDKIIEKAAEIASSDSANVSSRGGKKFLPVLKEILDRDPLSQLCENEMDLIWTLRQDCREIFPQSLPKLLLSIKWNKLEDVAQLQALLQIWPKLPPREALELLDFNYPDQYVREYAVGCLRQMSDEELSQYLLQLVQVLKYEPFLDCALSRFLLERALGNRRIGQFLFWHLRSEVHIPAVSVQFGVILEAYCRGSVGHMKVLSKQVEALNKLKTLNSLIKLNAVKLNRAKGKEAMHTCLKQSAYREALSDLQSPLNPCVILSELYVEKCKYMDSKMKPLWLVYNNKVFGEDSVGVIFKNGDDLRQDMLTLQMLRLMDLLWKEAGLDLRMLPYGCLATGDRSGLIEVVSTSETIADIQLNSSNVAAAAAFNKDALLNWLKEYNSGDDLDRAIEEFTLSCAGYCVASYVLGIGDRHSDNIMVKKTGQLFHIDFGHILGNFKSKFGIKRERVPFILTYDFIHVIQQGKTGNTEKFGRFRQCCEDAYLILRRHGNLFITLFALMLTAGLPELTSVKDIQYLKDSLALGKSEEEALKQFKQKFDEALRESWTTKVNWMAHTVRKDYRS

PIK3CG (human), sequence (P48736 whole entry, looked up): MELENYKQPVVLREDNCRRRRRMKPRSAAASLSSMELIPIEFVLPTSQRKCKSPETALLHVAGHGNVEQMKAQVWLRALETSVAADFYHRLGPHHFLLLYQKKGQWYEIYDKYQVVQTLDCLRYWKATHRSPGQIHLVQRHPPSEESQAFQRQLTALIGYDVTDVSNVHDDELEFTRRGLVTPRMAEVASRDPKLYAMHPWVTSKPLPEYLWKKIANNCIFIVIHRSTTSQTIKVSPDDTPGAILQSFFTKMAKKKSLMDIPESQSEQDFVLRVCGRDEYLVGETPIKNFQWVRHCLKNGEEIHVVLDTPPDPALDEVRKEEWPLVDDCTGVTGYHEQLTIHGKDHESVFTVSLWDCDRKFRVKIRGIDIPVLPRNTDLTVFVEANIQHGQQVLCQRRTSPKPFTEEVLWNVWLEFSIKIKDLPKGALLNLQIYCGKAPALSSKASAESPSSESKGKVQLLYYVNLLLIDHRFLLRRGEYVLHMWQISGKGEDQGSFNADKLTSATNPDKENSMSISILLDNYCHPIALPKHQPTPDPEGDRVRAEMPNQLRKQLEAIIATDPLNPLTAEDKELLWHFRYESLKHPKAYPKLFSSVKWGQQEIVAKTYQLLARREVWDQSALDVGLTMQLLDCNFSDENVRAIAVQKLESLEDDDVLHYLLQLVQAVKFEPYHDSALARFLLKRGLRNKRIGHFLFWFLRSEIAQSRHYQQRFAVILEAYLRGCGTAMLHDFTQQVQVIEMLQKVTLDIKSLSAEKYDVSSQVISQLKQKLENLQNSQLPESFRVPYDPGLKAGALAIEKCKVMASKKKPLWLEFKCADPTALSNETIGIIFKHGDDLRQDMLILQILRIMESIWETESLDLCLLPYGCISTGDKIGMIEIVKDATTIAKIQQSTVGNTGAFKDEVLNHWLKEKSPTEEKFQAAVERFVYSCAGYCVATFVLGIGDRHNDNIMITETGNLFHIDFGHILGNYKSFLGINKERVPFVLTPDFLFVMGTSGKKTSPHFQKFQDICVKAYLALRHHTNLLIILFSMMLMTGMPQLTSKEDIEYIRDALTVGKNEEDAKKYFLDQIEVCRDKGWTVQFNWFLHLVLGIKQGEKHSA
PIK3CD (Human), sequence (O00329 whole entry, looked up): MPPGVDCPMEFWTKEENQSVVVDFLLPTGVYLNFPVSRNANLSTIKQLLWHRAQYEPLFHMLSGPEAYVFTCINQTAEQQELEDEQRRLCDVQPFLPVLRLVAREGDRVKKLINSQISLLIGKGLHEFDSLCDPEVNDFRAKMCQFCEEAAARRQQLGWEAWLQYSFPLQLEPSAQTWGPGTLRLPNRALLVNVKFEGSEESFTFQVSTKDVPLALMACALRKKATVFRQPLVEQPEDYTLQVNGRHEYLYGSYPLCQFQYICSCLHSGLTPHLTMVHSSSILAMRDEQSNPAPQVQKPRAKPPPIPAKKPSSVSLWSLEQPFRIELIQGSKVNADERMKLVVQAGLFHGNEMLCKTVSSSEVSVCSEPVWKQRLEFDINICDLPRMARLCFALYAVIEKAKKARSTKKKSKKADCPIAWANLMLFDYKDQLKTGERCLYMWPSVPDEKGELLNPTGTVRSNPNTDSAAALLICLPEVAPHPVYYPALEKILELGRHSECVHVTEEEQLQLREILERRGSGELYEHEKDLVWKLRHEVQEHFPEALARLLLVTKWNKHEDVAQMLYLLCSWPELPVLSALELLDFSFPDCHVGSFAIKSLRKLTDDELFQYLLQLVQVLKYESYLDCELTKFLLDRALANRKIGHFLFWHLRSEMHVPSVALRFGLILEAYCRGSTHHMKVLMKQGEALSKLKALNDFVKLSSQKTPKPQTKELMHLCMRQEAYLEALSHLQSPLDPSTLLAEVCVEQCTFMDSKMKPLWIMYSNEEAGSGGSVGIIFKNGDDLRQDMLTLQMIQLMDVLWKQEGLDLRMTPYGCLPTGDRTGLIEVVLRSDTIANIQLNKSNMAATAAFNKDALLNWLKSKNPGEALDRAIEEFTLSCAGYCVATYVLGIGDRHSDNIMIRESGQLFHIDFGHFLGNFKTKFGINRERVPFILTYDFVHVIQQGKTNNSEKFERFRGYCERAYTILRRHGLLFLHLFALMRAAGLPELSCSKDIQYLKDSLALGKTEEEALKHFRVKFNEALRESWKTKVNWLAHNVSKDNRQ
PIK3CA (human), sequence (P42336 whole entry, looked up): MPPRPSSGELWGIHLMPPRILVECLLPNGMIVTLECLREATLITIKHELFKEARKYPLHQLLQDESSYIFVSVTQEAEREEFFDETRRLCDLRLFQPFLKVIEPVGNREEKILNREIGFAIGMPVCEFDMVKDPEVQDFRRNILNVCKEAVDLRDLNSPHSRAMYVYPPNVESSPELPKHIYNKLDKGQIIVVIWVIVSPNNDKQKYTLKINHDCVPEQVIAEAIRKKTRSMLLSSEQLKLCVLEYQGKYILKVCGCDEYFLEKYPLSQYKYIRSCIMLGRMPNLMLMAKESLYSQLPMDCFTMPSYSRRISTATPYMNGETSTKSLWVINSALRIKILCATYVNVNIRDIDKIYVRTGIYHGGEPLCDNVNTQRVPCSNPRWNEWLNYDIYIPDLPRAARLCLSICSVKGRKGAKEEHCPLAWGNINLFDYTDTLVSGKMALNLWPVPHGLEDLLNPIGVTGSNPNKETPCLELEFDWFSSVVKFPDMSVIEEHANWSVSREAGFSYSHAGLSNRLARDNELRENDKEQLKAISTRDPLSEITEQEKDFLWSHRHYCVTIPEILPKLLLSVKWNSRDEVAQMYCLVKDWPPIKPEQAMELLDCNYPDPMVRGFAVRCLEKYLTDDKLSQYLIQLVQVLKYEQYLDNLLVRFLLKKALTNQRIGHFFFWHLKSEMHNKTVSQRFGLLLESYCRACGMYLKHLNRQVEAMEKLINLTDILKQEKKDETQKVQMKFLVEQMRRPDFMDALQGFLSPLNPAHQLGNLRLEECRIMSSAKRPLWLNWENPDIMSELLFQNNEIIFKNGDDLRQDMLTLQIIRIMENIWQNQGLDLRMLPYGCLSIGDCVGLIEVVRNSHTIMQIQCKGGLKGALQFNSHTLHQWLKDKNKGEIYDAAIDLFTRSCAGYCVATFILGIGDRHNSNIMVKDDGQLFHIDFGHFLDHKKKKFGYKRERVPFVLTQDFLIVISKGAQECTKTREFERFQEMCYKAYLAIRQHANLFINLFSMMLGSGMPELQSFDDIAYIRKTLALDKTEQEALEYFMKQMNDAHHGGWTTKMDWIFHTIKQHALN

| SMILES | IC50 [1] [nM] | IC50 [2] [nM] | IC50 [3] [nM] | IC50 [4] [nM] |
| --- | --- | --- | --- | --- |
| Cc1ncc(-c2cnc(N)nc2N[C@@H](C)c2cc3cccc(Cl)c3c(=O)n2-c2ccccc2)s1 | < 100 | < 100 | > 10000 | 100 to 1000 |
| C[C@H](Nc1nc(N)ncc1C#N)c1cc2cccc(Cl)c2c(=O)n1-c1cccnc1 | < 100 | < 100 | > 10000 | 100 to 1000 |
| C[C@H](Nc1nc(N)ncc1C#N)c1cc2cccc(Cl)c2c(=O)n1-c1ccc(F)cc1 | 100 to 1000 | 100 to 1000 | > 10000 | > 10000 |
| C[C@H](Nc1nc(N)ncc1-c1ccccc1)c1cc2cccc(Cl)c2c(=O)n1-c1ccccc1 | – | 100 to 1000 | > 10000 | > 10000 |
| COc1ncc(-c2cccc3cc([C@H](C)Nc4nc(N)ncc4C(F)(F)F)n(-c4cccc(F)c4)c(=O)c23)cn1 | < 100 | 100 to 1000 | > 10000 | > 10000 |
| CC(=O)Nc1cnc(N)nc1N[C@@H](C)c1cc2cccc(Cl)c2c(=O)n1-c1ccccc1 | > 10000 | – | > 10000 | > 10000 |
| COc1cc(-c2cccc3cc([C@H](C)Nc4nc(N)nc(C)c4C#N)n(-c4ccccc4)c(=O)c23)ccn1 | < 100 | < 100 | < 100 | 100 to 1000 |
| COc1cc(-c2cccc3cc([C@H](C)Nc4nc(N)ncc4C(=O)N(C)OC)n(-c4ccccc4)c(=O)c23)ccn1 | 100 to 1000 | < 100 | > 10000 | > 10000 |
| C[C@H](Nc1nc(N)ncc1C#N)c1cc2cccc(-c3ccnnc3)c2c(=O)n1C1CC1 | < 100 | 100 to 1000 | > 10000 | 100 to 1000 |
| C[C@H](Nc1nc(N)ncc1S(C)(=O)=O)c1cc2cccc(Cl)c2c(=O)n1-c1ccccc1 | – | 100 to 1000 | > 10000 | > 10000 |
| C[C@H](Nc1nc(N)ncc1C#N)c1cc2cccc(-c3cncc(N(C)C)c3)c2c(=O)n1-c1ccccc1 | < 100 | < 100 | 100 to 1000 | > 10000 |
| C[C@H](Nc1nc(N)ncc1NC(=O)c1ccccc1)c1cc2cccc(Cl)c2c(=O)n1-c1ccccc1 | – | – | > 10000 | > 10000 |
| CSc1ncc(-c2cnc(N)nc2N[C@@H](C)c2cc3cccc(Cl)c3c(=O)n2-c2ccccc2)s1 | < 100 | < 100 | 100 to 1000 | 100 to 1000 |
| CCN(C)C(=O)c1cnc(N)nc1N[C@@H](C)c1cc2cccc(-c3ccnc(OC)c3)c2c(=O)n1-c1ccccc1 | – | 100 to 1000 | > 10000 | > 10000 |
| COc1cc(-c2cccc3cc([C@H](C)Nc4nc(N)ncc4C(=O)N4CCC4)n(-c4ccccc4)c(=O)c23)ccn1 | – | < 100 | > 10000 | > 10000 |
| C[C@H](Nc1nc(N)ncc1-c1csc(S(C)(=O)=O)n1)c1cc2cccc(Cl)c2c(=O)n1-c1ccccc1 | < 100 | < 100 | < 100 | < 100 |
| Cc1nc(N)nc(N[C@@H](C)c2cc3cccc(Cl)c3c(=O)n2-c2ccccc2)c1C#N | < 100 | < 100 | < 100 | < 100 |
| COc1cc(-c2cccc3cc([C@H](C)Nc4nc(N)ncc4C(=O)N(C)C)n(-c4ccccc4)c(=O)c23)ccn1 | < 100 | < 100 | 100 to 1000 | > 10000 |
| COc1cc(-c2cccc3cc([C@@H](C)Nc4nc(N)ncc4C#N)n(-c4ccccc4)c(=O)c23)ccn1 | < 100 | 100 to 1000 | > 10000 | > 10000 |
| C[C@H](Nc1cc(N)ncn1)c1cc2cccc(Cl)c2c(=O)n1-c1ccccc1 | 100 to 1000 | – | > 10000 | > 10000 |
| C[C@H](Nc1nc(N)ncc1C#N)c1cc2cccc(-c3ccn(C)c(=O)c3)c2c(=O)n1-c1ccccc1 | – | – | > 10000 | > 10000 |
| Cc1cc(N[C@@H](C)c2cc3cccc(Cl)c3c(=O)n2-c2ccccc2)nc(N)n1 | > 10000 | > 10000 | > 10000 | > 10000 |
| Cc1ncc(-c2cccc3nc([C@H](C)Nc4nc(N)ncc4C#N)n(-c4ccccc4)c(=O)c23)cn1 | < 100 | < 100 | > 10000 | > 10000 |
| C[C@H](Nc1cc(C(F)(F)F)nc(N)n1)c1cc2cccc(Cl)c2c(=O)n1-c1ccccc1 | > 10000 | > 10000 | > 10000 | > 10000 |
| C[C@H](Nc1nc(N)ncc1C#N)c1cc2cccc(Cl)c2c(=O)n1C | 100 to 1000 | 100 to 1000 | > 10000 | 100 to 1000 |
| C[C@H](Nc1ncnc(Cl)c1[N+](=O)[O-])c1cc2cccc(Cl)c2c(=O)n1-c1ccccc1 | 100 to 1000 | > 10000 | > 10000 | > 10000 |
| COc1ncc(-c2cccc3cc([C@H](C)Nc4nc(N)ncc4C(N)=O)n(-c4ccccc4)c(=O)c23)cn1 | < 100 | < 100 | > 10000 | > 10000 |
| C[C@H](Nc1cc(Cl)nc(N)n1)c1cc2cccc(Cl)c2c(=O)n1-c1ccccc1 | 100 to 1000 | 100 to 1000 | > 10000 | > 10000 |

| SMILES | IC50 [1] [nM] | IC50 [2] [nM] | IC50 [3] [nM] | IC50 [4] [nM] |
| --- | --- | --- | --- | --- |
| COc1cc(-c2cccc3cc([C@H](C)Nc4nc(N)ncc4-c4cc(O)cc(F)c4)n(-c4ccccc4)c(=O)c23)ccn1 | < 100 | 100 to 1000 | > 10000 | > 10000 |
| COc1ncc(-c2cccc3cc([C@H](C)Nc4nc(N)ncc4C(F)(F)F)n(-c4ccccc4)c(=O)c23)cn1 | < 100 | 100 to 1000 | > 10000 | > 10000 |
| C[C@H](Nc1nc(N)ncc1C#N)c1cc2cccc(-c3cccc(O)n3)c2c(=O)n1-c1ccccc1 | < 100 | 100 to 1000 | > 10000 | > 10000 |
| C[C@H](Nc1nc(Cl)ncc1[N+](=O)[O-])c1cc2cccc(Cl)c2c(=O)n1-c1ccccc1 | 100 to 1000 | – | > 10000 | > 10000 |
| C[C@H](Nc1nc(N)ncc1C#N)c1cc2cccc(-c3cnc4ccccc4c3)c2c(=O)n1-c1ccccc1 | < 100 | < 100 | < 100 | 100 to 1000 |
| C[C@H](Nc1nc(N)ncc1C#N)c1cc2cccc(C#CCCC(=O)N3CCOCC3)c2c(=O)n1-c1ccccc1 | < 100 | < 100 | 100 to 1000 | 100 to 1000 |
| COc1cc(-c2cccc3cc([C@H](C)Nc4nc(N)ncc4-c4ccc(F)c(O)c4)n(-c4ccccc4)c(=O)c23)ccn1 | < 100 | < 100 | > 10000 | > 10000 |
| C[C@H](Nc1nc(N)ncc1C#N)c1cc2cccc(-c3cnc4[nH]ccc4c3)c2c(=O)n1-c1ccccc1 | < 100 | < 100 | 100 to 1000 | 100 to 1000 |
| C[C@H](Nc1ncnc(N)c1[N+](=O)[O-])c1cc2cccc(Cl)c2c(=O)n1-c1ccccc1 | < 100 | < 100 | 100 to 1000 | < 100 |
| COc1cc(-c2cccc3cc([C@H](C)Nc4nc(N)ncc4C(=O)NC4CC4)n(-c4ccccc4)c(=O)c23)ccn1 | < 100 | – | > 10000 | > 10000 |
| C[C@H](Nc1cc(Cl)ncn1)c1cc2cccc(Cl)c2c(=O)n1-c1ccccc1 | – | – | > 10000 | > 10000 |
| COc1cccc2cc([C@H](C)Nc3nc(N)ncc3C#N)n(-c3ccccc3)c(=O)c12 | – | 100 to 1000 | > 10000 | > 10000 |
| COc1cc(N[C@@H](C)c2cc3cccc(Cl)c3c(=O)n2-c2ccccc2)nc(N)n1 | – | – | > 10000 | > 10000 |
| COc1cc(-c2cccc3cc([C@H](C)Nc4nc(N)ncc4C(=O)N4CCOCC4)n(-c4ccccc4)c(=O)c23)ccn1 | – | – | > 10000 | > 10000 |
| C[C@H](Nc1nc(N)ncc1C(=O)N1CCC1)c1cc2cccc(Cl)c2c(=O)n1-c1ccccc1 | – | < 100 | > 10000 | > 10000 |
| C[C@H](Nc1nc(N)ncc1C#N)c1cc2cccc(Cl)c2c(=O)n1-c1cscn1 | < 100 | < 100 | – | < 100 |
| COc1cnc(-c2cccc3cc([C@H](C)Nc4nc(N)ncc4C#N)n(-c4ccccc4)c(=O)c23)nc1 | – | 100 to 1000 | > 10000 | > 10000 |
| COc1cc(-c2cccc3cc([C@H](C)Nc4nc(N)ncc4[N+](=O)[O-])n(-c4ccccc4)c(=O)c23)ccn1 | < 100 | < 100 | – | > 10000 |
| Cc1cc(-c2cccc3cc([C@H](C)Nc4nc(N)ncc4C#N)n(-c4ccccc4)c(=O)c23)cn(C)c1=O | < 100 | < 100 | – | > 10000 |
| CC(C)n1c([C@H](C)Nc2nc(N)ncc2C#N)cc2cccc(Cl)c2c1=O | < 100 | < 100 | – | < 100 |
| CCOc1nc(-c2cnc(N)nc2N[C@@H](C)c2cc3cccc(Cl)c3c(=O)n2-c2ccccc2)cs1 | < 100 | < 100 | – | < 100 |
| C[C@H](Nc1nc(N)ncc1C(=O)N1CC(F)(F)C1)c1cc2cccc(Cl)c2c(=O)n1-c1ccccc1 | – | – | > 10000 | > 10000 |
| COc1cc(-c2cccc3cc([C@H](C)Nc4nc(N)ncc4C(=O)N(C)CCO)n(-c4ccccc4)c(=O)c23)ccn1 | – | – | > 10000 | > 10000 |
| C[C@H](Nc1nc(N)ncc1C#N)c1nc2cccc(Cl)c2c(=O)n1-c1ccccc1 | < 100 | < 100 | – | 100 to 1000 |
| C[C@H](Nc1nc(N)ncc1C#N)c1cc2cccc(-c3cccc(S(C)(=O)=O)c3)c2c(=O)n1-c1ccccc1 | < 100 | < 100 | – | > 10000 |
| C[C@H](Nc1nc(N)ncc1-c1cncs1)c1cc2cccc(Cl)c2c(=O)n1-c1ccccc1 | < 100 | < 100 | – | 100 to 1000 |
| C[C@H](Nc1nc(N)ncc1C#N)c1cc2cccc(-c3ccc(O)nc3)c2c(=O)n1-c1ccccc1 | < 100 | < 100 | – | > 10000 |

From the Kinase Knowledgebase extract (Sharma et al. 2016)
